# Where two headings read alike, the source gives them in different places.
# Tests used:
# [1] = tested on: mononucleotide repeat loci (mBat markers); type: in vivo, C57BL/6 mice
# [2] = tested on: mtDNA (Δ-mtDNA4977 deletion); type: in vivo, C57BL/6 mice; conditions: old age paraquat-treated group, three mice
# Procedure: […] mice were housed and inbred at the University of Wisconsin, with an average life span ˜30 months. Four groups of three mice were included in the study: 5-month old mice (young control or YC); 5-month old mice treated with paraquat; 24-month old mice (old age); and 24-month old mice treated with paraquat. Paraquat-treated animals received a single intraperitoneal injection of 50 mg/kg body weight dissolved in PBS 24 hours after their last feeding. Each mouse was sacrificed by cervical dislocation.
# The entire liver from each mouse was dissected, washed with PBS, placed in a 1.5 ml Ependorf tube, snap frozen in liquid nitrogen, and stored at −80° C. DNA was prepared from the mouse liver tissue by using the DNA-IQ Tissue and Hair Extraction Kit (Promega Corporation, Madison, Wis.) and was quantified using the PicoGreen dsDNA Quantitative Kit (Molecular Probes, Eugene, Oregon) following manufacturers protocols.
# Based on the mouse mtDNA sequence, four fluorescence labeled primer pairs were designed to detect both wildtype sequences and mtDNA deletions. […]
# Separation and detection of amplified fragments was performed on an ABI PRISM® 3100 Genetic Analyzer following the manufacturer's protocol (Applied Biosystems, Foster City, Calif.). Data was analyzed with the GeneScan and Genotyper computer software packages (Applied Biosystems). […]
# [3] = tested on: microsatellite markers in human fibroblast cell line #AG01522
# Procedure: human fibroblast cell line #AG01522 from Coriell Cell Repository were cultured in MEM Eagle-Earle BSS 2× concentration of essential and non-essential amino acids and vitamins with 2 mM L-glutamine, 10% fetal bovine serum, 0.5 Units/ml of penicillin, 0.5 μg/ml of streptomycin. Cell cultures were grown at 37° C. and 5% CO2 under sterile conditions and split at a ratio of 1:5 when cells were confluent by releasing cells with trypsin-EDTA treatment. […] Cells were pelleted and DNA extracted.
# Mutant alleles were identified by small-pool PCR as described in Example B above using primer pairs specific for microsatellite markers (Tables 2 and 7) including: (1) mononucleotide repeat markers (NR-21, NR-24, BAT-25, BAT-26 and MONO-27); (2) extended mononucleotide repeat markers (hBAT-51d, hBAT-52a, hBAT-53c, hBAT59a, hBAT-60a and hBAT-62); (3) tetranucleotide repeat markers on autosomal chromosomes (D7S3070, D7S3046, D7S1808, D10S1426 and D3S2432); (4) tri-, tetra- and penta-nucleotide repeats on the Y chromosome (DYS391, DYS389 I, DYS389 II, DYS438, DYS437, DYS19, DYS392, DYS393, DYS390, and DYS385); and (5) penta-nucleotide repeats Penta B, C, D, and E (Bacher, et al. 1999.
smiles,measurement,setting,value
C[n+]1ccc(-c2cc[n+](C)cc2)cc1 [Paraquat],Mutation Freq,"[1]; mBat-24, Old w/Paraquat",0.000
same,# Mutants,"[1]; mBat-24, Old w/Paraquat, 318 alleles",0
same,Mutation Freq,"[1]; mBat-24, Young w/ Paraquat",0.002
same,# Mutants,"[1]; mBat-24, Young w/ Paraquat, 648 alleles",1
same,Mutation Freq,"[1]; mBat-26, Old w/Paraquat",0.000
same,# Mutants,"[1]; mBat-26, Old w/Paraquat, 340 alleles",0
same,Mutation Freq,"[1]; mBat-26, Young w/ Paraquat",0.000
same,# Mutants,"[1]; mBat-26, Young w/ Paraquat, 457 alleles",0
same,Mutation Freq,"[1]; mBat-30, Old w/Paraquat",0.000
same,# Mutants,"[1]; mBat-30, Old w/Paraquat, 344 alleles",0
same,Mutation Freq,"[1]; mBat-30, Young w/ Paraquat",0.000
same,# Mutants,"[1]; mBat-30, Young w/ Paraquat, 704 alleles",0
same,Mutation Freq,"[1]; mBat-37, Old w/Paraquat",0.000
same,# Mutants,"[1]; mBat-37, Old w/Paraquat, 306 alleles",0
same,Mutation Freq,"[1]; mBat-37, Young w/ Paraquat",0.001
same,# Mutants,"[1]; mBat-37, Young w/ Paraquat, 992 alleles",1
same,Mutation Freq,"[1]; mBat-49, Old w/Paraquat",0.000
same,# Mutants,"[1]; mBat-49, Old w/Paraquat, 194 alleles",0
same,Mutation Freq,"[1]; mBat-51a, Old w/Paraquat",0.000
same,# Mutants,"[1]; mBat-51a, Old w/Paraquat, 240 alleles",0
same,Mutation Freq,"[1]; mBat-51b, Old w/Paraquat",0.000
same,# Mutants,"[1]; mBat-51b, Old w/Paraquat, 186 alleles",0
same,Mutation Freq,"[1]; mBat-52, Old w/Paraquat",0.000
same,# Mutants,"[1]; mBat-52, Old w/Paraquat, 44 alleles",0
same,Mutation Freq,"[1]; mBat-59, Old w/Paraquat",0.013
same,# Mutants,"[1]; mBat-59, Old w/Paraquat, 448 alleles",6
same,Mutation Freq,"[1]; mBat-59, Young w/ Paraquat",0
same,# Mutants,"[1]; mBat-59, Young w/ Paraquat, 636 alleles",4
same,Mutation Freq,"[1]; mBat-61a, Old w/Paraquat",0.005
same,# Mutants,"[1]; mBat-61a, Old w/Paraquat, 428 alleles",2
same,Mutation Freq,"[1]; mBat-64, Old w/Paraquat",0.019
same,# Mutants,"[1]; mBat-64, Old w/Paraquat, 412 alleles",8
same,Mutation Freq,"[1]; mBat-64, Young w/ Paraquat",0
same,# Mutants,"[1]; mBat-64, Young w/ Paraquat, 443 alleles",1
same,Mutation Freq,"[1]; mBat-66, Old w/Paraquat",0.018
same,# Mutants,"[1]; mBat-66, Old w/Paraquat, 448 alleles",8
same,Mutation Freq,"[1]; mBat-66, Young w/ Paraquat",0
same,# Mutants,"[1]; mBat-66, Young w/ Paraquat, 592 alleles",3
same,Mutation Freq,"[1]; mBat-67, Old w/Paraquat",0.051
same,# Mutants,"[1]; mBat-67, Old w/Paraquat, 394 alleles",20
same,Mutation Freq,"[1]; mBat-67, Young w/ Paraquat",0
same,# Mutants,"[1]; mBat-67, Young w/ Paraquat, 334 alleles",1
same,"mutations in loci mBAT-24, mBAT-26, mBat-30, or mBAT-37","[1]; old paraquat-treated group, out of 1608 alleles",no mutations
same,"mutations in mononucleotide repeat alleles assayed, loci mBAT-59, mBAT-64, mBAT-66 or mBAT-67","[1]; paraquat-treated old age group, SP-PCR, (25/1649)",over 1.8%
same,Δ-mtDNA4977 detected (mice of group),[2],All three mice in the old age paraquat-treated group showed Δ-mtDNA4977
OO [hydrogen peroxide],"mutations in extended mononucleotide repeats, Y-STRs and A-rich pentanucleotide repeats","[3]; cells exposed to 0.1 to 1.2 mM hydrogen peroxide for 1 hour, 3 days recovery",Mutations were detected
same,"mutations in short mononucleotide repeat markers NR-21, NR-24, BAT-25, BAT-26 or MONO-27","[3]; cells exposed to hydrogen peroxide, 0/1,526 alleles",No mutations
